The subject of experiment [1] is MSSA (sensitive strain) co-seeded with MRSA (resistant strain). Briefly: Co-seeded agar plate assay (Assay Protocol A), MSSA sensitive / MRSA resistant strain. The experiment is classed as cell-based, Staphylococcus aureus. To be noted: co-seeding ratio 500:1, 10 μL in DMSO, 37° C., 12 to 18 hours. How it is done: Each of a pair of bacterial strains, one sensitive and one resistant to a particular antibacterial agent, was grown by inoculating 25 mL of LB broth (i.e., 10 g of tryptone, 5 g of yeast extract, and 10 g NaCl per liter of water) with 1 to 5 colonies in an Erlenmeyer flask, and then holding the mixture overnight at a temperature of 37° C. while agitating the mixture via rotary shaking (200 rpm). Each batch was allowed to cool to room temperature (about 25° C.). Following OD measurements at λ=600 nm to ensure that both strains have grown to similar densities (i.e., a variation of 10% or less), a sample from the batch of the “sensitive” strain was diluted 10-fold in LB growth medium, and a sample of the “resistant” strain was diluted 500-fold or more to provide a final ratio (i.e., co-seeding ratio) of 50 or more sensitive cells to 1 resistant cell. A 750 μL sample of each of the diluted strains was then mixed into 20 mL of molten agar/growth medium agar (melt temperature=48° C.) (KD Medical's Cat. No. BLF-7070) and poured into rectangular 8.5×12.5 cm Omnitray dishes (Nalge NUNC Intl. Cat No. 242811). Wells were cast by applying custom-made pins (about 3 mm in diameter and 5 mm deep; Nalge NUNC Intl.) into the surface of the molten mixture (48 or 96 pins arrayed over the 8.5×12.5 cm surface) and then allowing the mixture to harden to provide an assay plate. Test samples dissolved in DMSO were added to the wells, after which the assay plate was incubated at 37° C. for a time sufficient to allow visual detection of cell colonies (i.e., 12 to 18 hours). The plates were then examined for zones of growth and inhibition under ambient light.
The tests set forth in Table 1 were conducted in the manner described in Assay Protocol A, except that in the case of the streptomycin-resistant strain, the inoculated liquid growth medium also contained 25 ug/mL of streptomycin in order to ensure that resistance was not lost during growth.

Experiment [2] has as its system MRSA (sensitive strain) co-seeded with CRMRSA (resistant strain). Description: Co-seeded agar plate assay (Assay Protocol A), MRSA sensitive / CRMRSA resistant strain. It is filed as cell-based, Staphylococcus aureus. The following applies: co-seeding ratio 100:1, 10 μL in DMSO, 37° C., 12 to 18 hours. How it is done:
(§1) Each of a pair of bacterial strains, one sensitive and one resistant to a particular antibacterial agent, was grown by inoculating 25 mL of LB broth (i.e., 10 g of tryptone, 5 g of yeast extract, and 10 g NaCl per liter of water) with 1 to 5 colonies in an Erlenmeyer flask, and then holding the mixture overnight at a temperature of 37° C. while agitating the mixture via rotary shaking (200 rpm). Each batch was allowed to cool to room temperature (about 25° C.). Following OD measurements at λ=600 nm to ensure that both strains have grown to similar densities (i.e., a variation of 10% or less), a sample from the batch of the “sensitive” strain was diluted 10-fold in LB growth medium, and a sample of the “resistant” strain was diluted 500-fold or more to provide a final ratio (i.e., co-seeding ratio) of 50 or more sensitive cells to 1 resistant cell. A 750 μL sample of each of the diluted strains was then mixed into 20 mL of molten agar/growth medium agar (melt temperature=48° C.) (KD Medical's Cat. No. BLF-7070) and poured into rectangular 8.5×12.5 cm Omnitray dishes (Nalge NUNC Intl. Cat No. 242811). Wells were cast by applying custom-made pins (about 3 mm in diameter and 5 mm deep; Nalge NUNC Intl.) into the surface of the molten mixture (48 or 96 pins arrayed over the 8.5×12.5 cm surface) and then allowing the mixture to harden to provide an assay plate. […]

Experiment [3] relates to ATCC 9637 (sensitive strain) co-seeded with MB941 (resistant strain). Description: Co-seeded agar plate assay (Assay Protocol A), ATCC 9637 sensitive / MB941 resistant strain. It is filed as cell-based, E. coli. To be noted: co-seeding ratio 1000:1, 10 μL in DMSO, 37° C., 12 to 18 hours. As for the experimental part:
as §1

In experiment [4] the test system is S-eEF2 (sensitive strain) co-seeded with HS-eEF2 (resistant strain). Briefly: Co-seeded agar plate assay (Assay Protocol B), S-eEF2 sensitive / HS-eEF2 resistant yeast strain. The experiment is classed as cell-based, Saccharomyces cerevisiae. To be noted: co-seeding ratio 50:1, DMSO solution, overnight at 29° C. As for the experimental part:
Assay Protocol B The S. cerevisiae yeast strains, S-eEF2 and HS-eEF2, were each grown overnight from a single colony in 5 mL YPAD (i.e., 1% yeast extract, 2% peptone, 0.004% adenine sulfate, and 2% glucose) in an Erlenmeyer flask at 29° C. with shaking on a roller drum. The sensitive strain S-eEF2 was diluted with additional YPAD to give a final absorbance at λ=600 nm of 0.01 (control =YPAD), and the resistant strain HS-eEF2 was diluted to an absorbance at λ=600 nm of 0.0002. Each strain (5 mL) was added to a glass test tube containing 25 mL of molten YPAD agar equilibrated at 50° C. The mixture was then stirred briefly and poured onto sterile disposable 86×128-mm plastic dishes (NUNC Cat. No. 242811). The dishes were cooled for 5 minutes at room temperature, dried in a hood, and then stored for no more than 2 days until ready for treatment with test substances. Test substances were dissolved in the appropriate solvent and a suitable portion of the solution was spotted on the co-seeded plates. The plates were incubated overnight at 29° C., and then inspected visually for the appearance of zones of growth and inhibition, and particularly for the appearance of resistant colonies capable of growing in the presence of the test substances.
The tests set forth in Table 2 were conducted in the manner described in Assay Protocol B.

In experiment [5] the test system is DH5 (sensitive strain) co-seeded with pKS-DH5 (resistant strain). Description: Co-seeded agar plate assay (Assay Protocol A), DH5 sensitive / pKS-DH5 resistant strain. The following applies: Run 6, FIG. 3; co-seeding ratio 500:1; 100 mg/mL, 10 μL in DMSO; 37° C., 12 to 18 hours. The experiment is classed as cell-based, Escherichia coli. How it is done: as §1

This note sets out measurements from US20060286624A1, “Method for identifying selective growth inhibitors” (priority 2003, published 2006).

In the case of `CO[C@@]1(NC(=O)Cc2cccs2)C(=O)N2C(C(=O)O)=C(COC(N)=O)CS[C@@H]21` [cefoxitin], in experiment [1] (Run 3, FIG. 1C, 500 μg/mL), the “zone of growth inhibition (appearance, resistant colonies)” value (shortened to “zone of growth inhibition”) was “a multitude of resistant colonies throughout the inhibition zone”. `O=C(O)c1cn(C2CC2)c2cc(N3CCNCC3)c(F)cc2c1=O` [ciproflaxin, ciprofloxacin]: the “zone of growth inhibition” value in experiment [2] (Run 4, FIG. 2A, 50 μg/mL) was “clear zone of no growth”. Turning to `CN(C)[C@@H]1C(O)=C(C(N)=O)C(=O)[C@@]2(O)C(O)=C3C(=O)c4c(O)cccc4[C@@](C)(O)[C@H]3C[C@@H]12` [tetracylin, tetracyclin], the “zone of growth inhibition” value in experiment [3] (Run 7, FIG. 4A, 1 mg/mL) is listed as “clear zone of no growth”. As to `[H]/N=C(/N)N[C@H]1[C@H](O)[C@@H](O)[C@H](O[C@@H]2O[C@@H](C)[C@](O)(C=O)[C@H]2O[C@@H]2O[C@@H](CO)[C@H](O)[C@@H](O)[C@@H]2NC)[C@@H](N/C(N)=N\[H])[C@@H]1O` [streptomycin], the “zone of growth inhibition” value in experiment [1] (Run 2, FIG. 1B, 1 mg/mL) was “a few colonies at or near the border of the inhibition zone”; in experiment [3] (Run 8, FIG. 4B, 500 μg/mL), “zone of no growth containing isolated colonies of resistant bacteria”. For the compound `O=C(N[C@H](CO)[C@H](O)c1ccc([N+](=O)[O-])cc1)C(Cl)Cl` [chloramphenicol], the “zone of growth inhibition” value in experiment [1] (Run 1, FIG. 1A, 100 μg/mL) is on record as “visually contains no resistant colonies”; in experiment [2] (Run 5, FIG. 2B, 1 mg/mL) it was “zone of no growth containing isolated colonies of resistant bacteria”.

As to `CC(=O)O[C@@H]1C[C@]23C4=CC[C@@]5(C)[C@H](C(=O)O)[C@@](C)([C@H](C)C(C)C)CC[C@]5(C)[C@H]4CC[C@H]2[C@@](C)(COC3O)[C@H]1O[C@@H]1O[C@H](CO)[C@@H](O)[C@H](O)[C@H]1O` (stereo partly shown) [enfumafungin], the “zone of growth inhibition” value in experiment [4] (Run 9, FIG. 5A, 0.2 μg spotted) is “visually clear zone exhibiting no growth of either the sensitive or the resistant strain”. For the compound `CO[C@H]1[C@@H](O)[C@H](O)[C@H](OC[C@@]23C[C@@H]4[C@H](C)CC[C@H]4[C@@]4(C=O)CC2C=C(C(C)C)[C@@]34C(=O)O)O[C@@H]1C` [sordarin], the “zone of growth inhibition” value in experiment [4] (Run 10, FIG. 5B, 2 μg spotted) was “zone of growth inhibition in which resistant colonies are present”. Take `CC1(C)S[C@@H]2[C@H](NC(=O)[C@H](N)c3ccccc3)C(=O)N2[C@H]1C(=O)O` [ampicillin]: in experiment [5], the “zone of growth inhibition” value is “isolated resistant colonies within a zone that otherwise exhibits no growth”.
